# Reference: patent EP4806894A1, “TNAP INHIBITORY COMPOUND AND USE THEREOF” (Rednvia Co., Ltd., priority 2023, dated 2025)
# Structures can show the parent of a compound that is named as a salt.
# What was measured:
# TNAP = molecular target: T1, TNAP (Homo sapiens, UniProt P05186); experiment: TNAP inhibitory activity, colorimetric assay (alkaline phosphatase assay kit ab83369, pNPP substrate); assay type: biochemical; conditions: TNAP enzyme, 2 hours at room temperature, absorbance 405 nm
# T1 sequence (P05186 18-502 limits assumed): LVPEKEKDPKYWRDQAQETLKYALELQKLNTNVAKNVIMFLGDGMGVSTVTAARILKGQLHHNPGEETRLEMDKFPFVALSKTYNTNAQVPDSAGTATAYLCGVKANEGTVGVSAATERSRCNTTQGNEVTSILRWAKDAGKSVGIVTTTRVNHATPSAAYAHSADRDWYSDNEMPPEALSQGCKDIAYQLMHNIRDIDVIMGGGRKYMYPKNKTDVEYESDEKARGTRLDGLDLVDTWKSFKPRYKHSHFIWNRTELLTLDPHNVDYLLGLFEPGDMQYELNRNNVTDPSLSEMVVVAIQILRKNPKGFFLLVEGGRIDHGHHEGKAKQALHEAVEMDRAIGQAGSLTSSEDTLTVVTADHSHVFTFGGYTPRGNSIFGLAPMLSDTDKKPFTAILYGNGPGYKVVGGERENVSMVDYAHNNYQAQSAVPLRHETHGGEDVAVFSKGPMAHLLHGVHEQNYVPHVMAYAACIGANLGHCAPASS
# saos-2 cells = experiment: Anticalcification efficacy in saos-2 cells (osteogenic medium, Alizarin Red staining); assay type: cell-based; conditions: Homo sapiens, 168 h, test compound 1 µM, 7 days osteogenic medium, Alizarin Red absorbance 540 nm, read-out: calcification inhibition
# Summary of the method: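 Saos-2 cells at 80–90% confluence induced for 7 days in osteogenic medium (DMEM, 100 nM dexamethasone, 10 mM β-glycerophosphate, 0.05 mM ascorbic acid), compound (0.5, 1, 5, 10 […]) added with each medium change. Alizarin Red staining eluted with cetylpyridinium chloride, A540 read; inhibition taken against OM-only absorbance.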
SMILES,IC50 (TNAP) [µM],inhibition at 1 µM (saos-2 cells) [%]
"COc1ccc(C2=CCNCC2)cc1S(=O)(=O)Nc1cnc2c(c1)C(=O)NCC2 [Example 53, 2-methoxy-N-(5-oxo-5,6,7,8-tetrahydro-1,6-naphthyridine-3-yl)-5-(1,2,3,6-tetrahydropyridine-4-yl)benzenesulfonamide hydrochloride]",0.1 to 1,0 to 50
"O=C1NCCc2ncc(NS(=O)(=O)c3cc(F)ccc3Br)cc21 [Example 56, 2-bromo-5-fluoro-N-(5-oxo-5,6,7,8-tetrahydro-1,6-naphthyridine-3-yl)benzenesulfonamide]",0.1 to 1,≥ 50
"COc1ccc(-c2cnn(C)c2)cc1S(=O)(=O)Nc1cnc2c(c1)C(=O)NCC2 [Example 57, 2-methoxy-5-(1-methyl-1H-pyrazole-4-yl)-N-(5-oxo-5,6,7,8-tetrahydro-1,6-naphthyridine-3-yl)benzenesulfonamide]",0.1 to 1,≥ 50
"COc1ccc(-c2cnn(C(C)(C)C(N)=O)c2)cc1S(=O)(=O)Nc1cnc2c(c1)C(=O)NCC2 [Example 58, 2-(4-(4-methoxy-3-(N-(5-oxo-5,6,7,8-tetrahydro-1,6-naphthyridine-3-yl)sulfamoyl)phenyl)-1H-pyrazole-1-yl)-2-methylpropanamide]",≥ 1,0 to 50
"CCOC(=O)C(C)(C)n1cc(-c2ccc(OC)c(S(=O)(=O)Nc3cnc4c(c3)C(=O)NCC4)c2)cn1 [Example 59, ethyl 2-(4-(4-methoxy-3-(N-(5-oxo-5,6,7,8-tetrahydro-1,6-naphthyridine-3-yl)sulfamoyl)phenyl)-1H-pyrazole-1-yl)-2-methylpropanoate]",0.1 to 1,≥ 50
"COc1ccc(-c2cnn(C(C)(C)C(=O)O)c2)cc1S(=O)(=O)Nc1cnc2c(c1)C(=O)NCC2 [Example 60, 2-(4-(4-methoxy-3-(N-(5-oxo-5,6,7,8-tetrahydro-1,6-naphthyridine-3-yl)sulfamoyl)phenyl)-1H-pyrazole-1-yl)-2-methylpropanoic acid]",0.1 to 1,≥ 50
"COc1ccc(C2=CCN(C(C)=O)CC2)cc1S(=O)(=O)Nc1cnc2c(c1)C(=O)NCC2 [Example 61, 5-(1-acetyl-1,2,3,6-tetrahydropyridine-4-yl)-2-methoxy-N-(5-oxo-5,6,7,8-tetrahydro-1,6-naphthyridine-3-yl)benzenesulfonamide]",0.1 to 1,≥ 50
"COc1ccc(C2=CCCCC2)cc1S(=O)(=O)Nc1cnc2c(c1)C(=O)NCC2 [Example 63, 4-methoxy-N-(5-oxo-5,6,7,8-tetrahydro-1,6-naphthyridine-3-yl)-2',3',4',5'-tetrahydro-[1,1'-biphenyl]-3-sulfonamide]",0.1 to 1,< 0
"COc1ccc(C2=CCC(F)(F)CC2)cc1S(=O)(=O)Nc1cnc2c(c1)C(=O)NCC2 [Example 64, 4',4'-difluoro-4-methoxy-N-(5-oxo-5,6,7,8-tetrahydro-1,6-naphthyridine-3-yl)-2',3',4',5'-tetrahydro-[1,1'-biphenyl]-3-sulfonamide]",≥ 1,< 0
"COc1ccc(-c2cnn(C3CCN(C)CC3)c2)cc1S(=O)(=O)Nc1cnc2c(c1)C(=O)NCC2 [Example 65, 2-methoxy-5-(1-(1-methylpiperidine-4-yl)-1H-pyrazole-4-yl)-N-(5-oxo-5,6,7,8-tetrahydro-1,6-naphthyridine-3-yl)benzenesulfonamide]",≥ 1,< 0
"CCNC(=O)Cn1cc(-c2ccc(OC)c(S(=O)(=O)Nc3cnc4c(c3)C(=O)NCC4)c2)cn1 [Example 66, N-ethyl-2-(4-(4-methoxy-3-(N-(5-oxo-5,6,7,8-tetrahydro-1,6-naphthyridine-3-yl)sulfamoyl)phenyl)-1H-pyrazole-1-yl)acetamide]",≥ 1,< 0
"CCNC(=O)CCc1ccc(-c2ccc(OC)c(S(=O)(=O)Nc3cnc4c(c3)C(=O)NCC4)c2)cc1 [Example 67, N-ethyl-3-(4'-methoxy-3'-(N-(5-oxo-5,6,7,8-tetrahydro-1,6-naphthyridine-3-yl)sulfamoyl)-[1,1'-biphenyl]-4-yl)propanamide]",0.1 to 1,0 to 50
"COc1ccc(-c2cnn(C(C)c3nc(C(C)C)no3)c2)cc1S(=O)(=O)Nc1cnc2c(c1)C(=O)NCC2 (stereo not shown) [Example 69, 5-(1-(1-(3-isopropyl-1,2,4-oxadiazole-5-yl)ethyl)-1H-pyrazole-4-yl)-2-methoxy-N-(5-oxo-5,6,7,8-tetrahydro-1,6-naphthyridine-3-yl)benzenesulfonamide]",0.1 to 1,< 0
"COc1ccc(-c2cnn(C(C)c3nc(C)no3)c2)cc1S(=O)(=O)Nc1cnc2c(c1)C(=O)NCC2 (stereo not shown) [Example 70, 2-methoxy-5-(1-(1-(3-methyl-1,2,4-oxadiazole-5-yl)ethyl)-1H-pyrazole-4-yl)-N-(5-oxo-5,6,7,8-tetrahydro-1,6-naphthyridine-3-yl)benzenesulfonamide]",0.1 to 1,≥ 50
"COc1ccc(-c2cnn(C(C)c3nc(-c4ccc(F)cc4)no3)c2)cc1S(=O)(=O)Nc1cnc2c(c1)C(=O)NCC2 (stereo not shown) [Example 71, 5-(1-(1-(3-(4-fluorophenyl)-1,2,4-oxadiazole-5-yl)ethyl)-1H-pyrazole-4-yl)-2-methoxy-N-(5-oxo-5,6,7,8-tetrahydro-1,6-naphthyridine-3-yl)benzenesulfonamide]",≥ 1,< 0
"COc1ccc(-c2cnn(C(F)(F)F)c2)cc1S(=O)(=O)Nc1cnc2c(c1)C(=O)NCC2 [Example 73, 2-methoxy-N-(5-oxo-5,6,7,8-tetrahydro-1,6-naphthyridine-3-yl)-5-(1-(trifluoromethyl)-1H-pyrazole-4-yl)benzenesulfonamide]",0.1 to 1,≥ 50
"COc1ccc(-c2cnn(C3CC3)c2)cc1S(=O)(=O)Nc1cnc2c(c1)C(=O)NCC2 [Example 74, 5-(1-cyclopropyl-1H-pyrazole-4-yl)-2-methoxy-N-(5-oxo-5,6,7,8-tetrahydro-1,6-naphthyridine-3-yl)benzenesulfonamide]",0.1 to 1,≥ 50
"COc1ccc(-c2cnn(S(C)(=O)=O)c2)cc1S(=O)(=O)Nc1cnc2c(c1)C(=O)NCC2 [Example 75, 2-methoxy-5-(1-(methylsulfonyl)-1H-pyrazole-4-yl)-N-(5-oxo-5,6,7,8-tetrahydro-1,6-naphthyridine-3-yl)benzenesulfonamide]",0.1 to 1,≥ 50

# Further lines, with some results ahead:
IC50 (TNAP) [µM],SMILES,inhibition at 1 µM (saos-2 cells) [%]
0.01 to 0.1,"COc1ccc(-c2ccc(CCC(=O)O)cc2)cc1S(=O)(=O)Nc1cnc2c(c1)C(=O)NCC2 [Example 50, 3-(4'-methoxy-3'-(N-(5-oxo-5,6,7,8-tetrahydro-1,6-naphthyridine-3-yl)sulfamoyl)-[1,1'-biphenyl]-4-yl)propanoic acid]",≥ 50
0.1 to 1,"COc1ccc(C2=CCOCC2)cc1S(=O)(=O)Nc1cnc2c(c1)C(=O)NCC2 [Example 51, 5-(3,6-dihydro-2H-pyran-4-yl)-2-methoxy-N-(5-oxo-5,6,7,8-tetrahydro-1,6-naphthyridine-3-yl)benzenesulfonamide]",≥ 50
0.1 to 1,"COc1ccc(C2=CCN(C(=O)OC(C)(C)C)CC2)cc1S(=O)(=O)Nc1cnc2c(c1)C(=O)NCC2 [Example 52, tert-butyl 4-(4-methoxy-3-(N-(5-oxo-5,6,7,8-tetrahydro-1,6-naphthyridine-3-yl)sulfamoyl)phenyl)-3,6-dihydropyridine-1(2H)-carboxylate]",≥ 50
0.1 to 1,"COc1ccc(-c2cnn(C3CCCCO3)c2)cc1S(=O)(=O)Nc1cnc2c(c1)C(=O)NCC2 (stereo not shown) [Example 54, 2-methoxy-N-(5-oxo-5,6,7,8-tetrahydro-1,6-naphthyridine-3-yl)-5-(1-(tetrahydro-2H-pyran-2-yl)-1H-pyrazole-4-yl)benzenesulfonamide]",≥ 50
0.1 to 1,"COc1ccc(-c2cn[nH]c2)cc1S(=O)(=O)Nc1cnc2c(c1)C(=O)NCC2 [Example 55, 2-methoxy-N-(5-oxo-5,6,7,8-tetrahydro-1,6-naphthyridine-3-yl)-5-(1H-pyrazole-4-yl)benzenesulfonamide]",≥ 50
0.01 to 0.1,"COc1ccc(C2=CCCOC2)cc1S(=O)(=O)Nc1cnc2c(c1)C(=O)NCC2 [Example 62, 5-(5,6-dihydro-2H-pyran-3-yl)-2-methoxy-N-(5-oxo-5,6,7,8-tetrahydro-1,6-naphthyridine-3-yl)benzenesulfonamide]",≥ 50
0.01 to 0.1,"CCOC(=O)Cn1cc(-c2ccc(OC)c(S(=O)(=O)Nc3cnc4c(c3)C(=O)NCC4)c2)cn1 [Example 68, ethyl 2-(4-(4-methoxy-3-(N-(5-oxo-5,6,7,8-tetrahydro-1,6-naphthyridine-3-yl)sulfamoyl)phenyl)-1H-pyrazole-1-yl)acetate]",≥ 50
0.01 to 0.1,"COc1ccc(-c2cnn(C(C)C)c2)cc1S(=O)(=O)Nc1cnc2c(c1)C(=O)NCC2 [Example 72, 5-(1-isopropyl-1H-pyrazole-4-yl)-2-methoxy-N-(5-oxo-5,6,7,8-tetrahydro-1,6-naphthyridine-3-yl)benzenesulfonamide]",≥ 50
